Broadly, the pIC50 is −log10 of the IC50, conventionally taken in molar units. A high value points to a small IC50.

pIC50: −log10 of the molar value.

IC50 data for ten compounds are collected here from ChEMBL document CHEMBL2046338, “Synthesis and antimalarial activity of calothrixins A and B, and their N-alkyl derivatives” (Bioorg Med Chem Lett, 2012).

For this test, the system named is Plasmodium falciparum. Briefly: Antimalarial activity against chloroquine sensitive Plasmodium falciparum FCR-3. The test is classed as functional. To be noted: FCR-3/Gambia.
As to `Cn1c2c(c3ccccc31)C(=O)c1cnc3ccccc3c1C2=O`, the pIC50 is 6.31.

Consider `O=C1c2[nH]c3ccccc3c2C(=O)c2cnc3ccccc3c21` [CALOTHRIXIN B], for which the pIC50 was 6.92. Compared with the last compound, the pIC50 is 0.61 log units higher.

`Cn1c2c(c3ccccc31)C(=O)c1c[n+]([O-])c3ccccc3c1C2=O` gave a pIC50 of 6.42.

Compound `CCn1c2c(c3ccccc31)C(=O)c1cnc3ccccc3c1C2=O` showed a pIC50 of 5.66.

Regarding `CC(C)n1c2c(c3ccccc31)C(=O)c1c[n+]([O-])c3ccccc3c1C2=O`, the pIC50 is 6.49.

In the case of `O=C1c2c[n+]([O-])c3ccccc3c2C(=O)c2c1c1ccccc1n2CCO`, the pIC50 is 6.60.

On to `O=C1c2cnc3ccccc3c2C(=O)c2c1c1ccccc1n2CCO`, for which the pIC50 was 6.48.

`CC(C)n1c2c(c3ccccc31)C(=O)c1cnc3ccccc3c1C2=O` showed a pIC50 of 5.19.

On to `CCn1c2c(c3ccccc31)C(=O)c1c[n+]([O-])c3ccccc3c1C2=O`, for which the pIC50 is 6.42.

In turn, `O=C1c2c[n+]([O-])c3ccccc3c2C(=O)c2[nH]c3ccccc3c21` [CALOTHRIXIN A] had a negative-log IC50 (pIC50) of 6.73. Compared with the last compound, the pIC50 is 0.31 log units higher.
